Assay results taken from ChEMBL document CHEMBL3758081, “Synthesis and biological evaluation of new naphthalene substituted thiosemicarbazone derivatives as potent antifungal and anticancer agents” (Eur J Med Chem, 2016).
Values after ≈ are worked out from the molar mass of the structure shown.

How the values were obtained:
Candida tropicalis = test: Antifungal activity against Candida tropicalis NRLL Y-12968 after 48 hrs by broth microdilution method; type: functional; details: NRLL Y-12968, 48 h
[1] = Cytotoxicity against mouse NIH/3T3 cells after 24 hrs by XTT assay; type: cell-based; details: NIH3T3, 24 h
Aspergillus parasiticus = test: Antifungal activity against Aspergillus parasiticus NRRL 465 after 72 hrs by broth microdilution method; type: functional; details: NRRL 465, 72 h
Candida parapsilosis = test: Antifungal activity against Candida parapsilosis NRLL Y-12696 after 48 hrs by broth microdilution method; type: functional; details: Lodderomyces parapsilosis, NRLL Y-12696, 48 h
Aspergillus niger = test: Antifungal activity against Aspergillus niger ATCC-1094 after 72 hrs by broth microdilution method; type: functional; details: ATCC-1094, 72 h
Candida albicans = test: Antifungal activity against Candida albicans ATCC-90028 after 48 hrs by broth microdilution method; type: functional; details: ATCC-90028, 48 h
A549 = test: Cytotoxicity against human A549 cells after 24 hrs by XTT assay; type: functional, cell-based; details: A549, 24 h
Fusarium solani = test: Antifungal activity against Fusarium solani NRRL-13414 after 72 hrs by broth microdilution method; type: functional; details: NRRL-13414, 72 h
Aspergillus flavus = test: Antifungal activity against Aspergillus flavus NRRL-980 after 72 hrs by broth microdilution method; type: functional; details: NRRL-980, 72 h
Nakaseomyces glabratus = test: Antifungal activity against clinical isolate Candida glabrata after 48 hrs by broth microdilution method; type: functional
[Candida] zeylanoides = Antifungal activity against Candida zeylanoides NRLL Y-1774 after 48 hrs by broth microdilution method; type: functional; details: Dujonia zeylanoides, NRLL Y-1774, 48 h
Pichia kudriavzevii = test: Antifungal activity against Candida krusei NRLL Y-7179 after 48 hrs by broth microdilution method; type: functional; details: NRLL Y-7179, 48 h

| SMILES | MIC (Candida tropicalis) | MIC (Aspergillus parasiticus) | MIC (Candida parapsilosis) | MIC (Aspergillus niger) | MIC (Candida albicans) | MIC (Fusarium solani) | MIC (Aspergillus flavus) | MIC (Nakaseomyces glabratus) | MIC ([Candida] zeylanoides) | MIC (Pichia kudriavzevii) | IC50 [1] | IC50 (A549) |
| --- | --- | --- | --- | --- | --- | --- | --- | --- | --- | --- | --- | --- |
| Fc1ccc(/C=N/NC(=S)Nc2cccc3ccccc23)cc1Cl | 250 µg/mL (≈ 699 µM) | 250 µg/mL (≈ 699 µM) | 250 µg/mL (≈ 699 µM) | 250 µg/mL (≈ 699 µM) | 250 µg/mL (≈ 699 µM) | 250 µg/mL (≈ 699 µM) | 250 µg/mL (≈ 699 µM) | 250 µg/mL (≈ 699 µM) | 250 µg/mL (≈ 699 µM) | 250 µg/mL (≈ 699 µM) | 500 µg/mL (≈ 1400 µM) | 51.3 µg/mL (≈ 143 µM) |
| Fc1cc(F)c(/C=N/NC(=S)Nc2cccc3ccccc23)c(F)c1 | 250 µg/mL (≈ 696 µM) | 250 µg/mL (≈ 696 µM) | 250 µg/mL (≈ 696 µM) | 250 µg/mL (≈ 696 µM) | 250 µg/mL (≈ 696 µM) | 250 µg/mL (≈ 696 µM) | 250 µg/mL (≈ 696 µM) | 250 µg/mL (≈ 696 µM) | 250 µg/mL (≈ 696 µM) | 250 µg/mL (≈ 696 µM) | > 500 µg/mL | > 500 µg/mL |
| Fc1ccc(Oc2ccc(/C=N/NC(=S)Nc3cccc4ccccc34)cc2)cc1 | 250 µg/mL (≈ 602 µM) | 250 µg/mL (≈ 602 µM) | 250 µg/mL (≈ 602 µM) | 250 µg/mL (≈ 602 µM) | 250 µg/mL (≈ 602 µM) | 250 µg/mL (≈ 602 µM) | 250 µg/mL (≈ 602 µM) | 250 µg/mL (≈ 602 µM) | 250 µg/mL (≈ 602 µM) | 250 µg/mL (≈ 602 µM) | > 500 µg/mL | 62.5 µg/mL (≈ 150 µM) |
| Fc1ccc(/C=N/NC(=S)Nc2cccc3ccccc23)c(F)c1 | 250 µg/mL (≈ 732 µM) | 250 µg/mL (≈ 732 µM) | 250 µg/mL (≈ 732 µM) | 250 µg/mL (≈ 732 µM) | 250 µg/mL (≈ 732 µM) | 250 µg/mL (≈ 732 µM) | 250 µg/mL (≈ 732 µM) | 250 µg/mL (≈ 732 µM) | 250 µg/mL (≈ 732 µM) | 250 µg/mL (≈ 732 µM) | > 500 µg/mL | 31.2 µg/mL (≈ 91.5 µM) |
| CC(=O)N1CCN(c2ccc(OCC3COC(Cn4ccnc4)(c4ccc(Cl)cc4Cl)O3)cc2)CC1 (stereo unspecified) [KETOCONAZOLE] | 125 µg/mL (≈ 235 µM) | 7.81 µg/mL (≈ 14.7 µM) | 15.6 µg/mL (≈ 29.4 µM) | 31.2 µg/mL (≈ 58.8 µM) | 62.5 µg/mL (≈ 118 µM) | 62.5 µg/mL (≈ 118 µM) | 15.6 µg/mL (≈ 29.4 µM) | 62.5 µg/mL (≈ 118 µM) | 250 µg/mL (≈ 470 µM) | 125 µg/mL (≈ 235 µM) | – | – |

More lines, main results first:

| MIC (Candida tropicalis) | MIC (Aspergillus parasiticus) | MIC (Candida parapsilosis) | MIC (Aspergillus niger) | MIC (Candida albicans) | MIC (Fusarium solani) | MIC (Aspergillus flavus) | MIC (Nakaseomyces glabratus) | MIC ([Candida] zeylanoides) | MIC (Pichia kudriavzevii) | SMILES | IC50 [1] | IC50 (A549) |
| --- | --- | --- | --- | --- | --- | --- | --- | --- | --- | --- | --- | --- |
| 250 µg/mL (≈ 699 µM) | 250 µg/mL (≈ 699 µM) | 250 µg/mL (≈ 699 µM) | 250 µg/mL (≈ 699 µM) | 250 µg/mL (≈ 699 µM) | 250 µg/mL (≈ 699 µM) | 250 µg/mL (≈ 699 µM) | 250 µg/mL (≈ 699 µM) | 250 µg/mL (≈ 699 µM) | 250 µg/mL (≈ 699 µM) | Fc1cccc(Cl)c1/C=N/NC(=S)Nc1cccc2ccccc12 | > 500 µg/mL | 125 µg/mL (≈ 349 µM) |
| 250 µg/mL (≈ 732 µM) | 250 µg/mL (≈ 732 µM) | 250 µg/mL (≈ 732 µM) | 250 µg/mL (≈ 732 µM) | 250 µg/mL (≈ 732 µM) | 250 µg/mL (≈ 732 µM) | 250 µg/mL (≈ 732 µM) | 250 µg/mL (≈ 732 µM) | 250 µg/mL (≈ 732 µM) | 250 µg/mL (≈ 732 µM) | Fc1cc(F)cc(/C=N/NC(=S)Nc2cccc3ccccc23)c1 | > 500 µg/mL | 500 µg/mL (≈ 1460 µM) |
| 250 µg/mL (≈ 732 µM) | 250 µg/mL (≈ 732 µM) | 250 µg/mL (≈ 732 µM) | 250 µg/mL (≈ 732 µM) | 250 µg/mL (≈ 732 µM) | 250 µg/mL (≈ 732 µM) | 250 µg/mL (≈ 732 µM) | 250 µg/mL (≈ 732 µM) | 250 µg/mL (≈ 732 µM) | 250 µg/mL (≈ 732 µM) | Fc1cccc(F)c1/C=N/NC(=S)Nc1cccc2ccccc12 | 31.2 µg/mL (≈ 91.5 µM) | 500 µg/mL (≈ 1460 µM) |
| 250 µg/mL (≈ 732 µM) | 250 µg/mL (≈ 732 µM) | 250 µg/mL (≈ 732 µM) | 250 µg/mL (≈ 732 µM) | 250 µg/mL (≈ 732 µM) | 250 µg/mL (≈ 732 µM) | 250 µg/mL (≈ 732 µM) | 250 µg/mL (≈ 732 µM) | 250 µg/mL (≈ 732 µM) | 250 µg/mL (≈ 732 µM) | Fc1ccc(/C=N/NC(=S)Nc2cccc3ccccc23)cc1F | > 500 µg/mL | 125 µg/mL (≈ 366 µM) |
